Results published in US5942537A, “Method of inhibiting the transport of L-glutamate to treat CNS disorders” (The Regents of the University of California, priority 1993, dated 1999).

Key:
[1] = target: T1, high affinity transport of 3H-L-glutamate into synaptosomes (Rattus norvegicus, UniProt P31596); test: Synaptosomal uptake of 3H-L-glutamate; format: biochemical; conditions: 10 μM 3H-L-glutamate; for inhibition of glutamate transport (in words): isomers at similar concentrations (20 μM)
T1 construct: Synaptosomes were prepared by the procedure of Booth et al; from tissue; host or cells: brain synaptosomes (Ficoll/sucrose gradient)
Procedure: Synaptosomal uptake of ^3 H-L-glutamate (10 μM) was followed at 37° C. in the presence and absence of 20 μM PDC isomers. The curves shown are from representative experiments (n=2-4 rate determinations) and are reported as mean ±SD. Transport rates were determined by linear regression analysis and have been corrected for background and non-specific uptake. The effect of the PDC isomers and is reported as % of control transport rate ±SD (n=8-16 rate determinations).
(§1) The Synaptosomes were prepared by the procedure of (a) Booth, R. F. G.; Clark, J. B., Biochem J. 176, 365 (1978) and assayed for synaptosomal uptake as described by (b) Kuhar, M. M.; Zarbin, M. J., Neurochem 31, 251 (1978), both which are incorporated by reference herein. The binding specificities of the four PDC isomers were determined by testing both their ability to inhibit the high affinity transport of ^3 H-L-glutamate into synaptosomes and to block the binding of radioligands to each of the three receptor sites in a synaptic plasma membrane preparation (SPM) (Synaptic plasma membranes were prepared and NMDA receptor binding quantified as described by Monaghan, D. T.; Cotman, C. W., Proc. Nat. Acad. Sci. U.S.A. 83, 7532 (1986) incorporated by reference herein). When included in the ^3 H-L-glutamate uptake assay, as represented in FIG. 3, at only a 2-fold excess relative to L-glutamate (10 μM of ^3 H-L-glutamate vs. 20 μM of 7), the L-trans-2,4-PDC isomer reduced the rate of synaptosomal transport from control levels of 1.13 nmol min^-1 mg-protein^-1 to 0.16 nmol min^-1 mg-protein^-1. […] This selective inhibition by L-trans-2,4-PDCclearly delineates a preferred configurational and/or conformational relationship for binding to the glutamate uptake protein.
Synaptosomes were prepared by the procedure of Booth et al., (Biochem J. 176:365 (1978) incorporated by reference herein), using Ficoll/sucrose gradient centrifugation. Uptake of ^3 H-L-glutamate was followed essentially as described by Kuhar and Zarbin (J. Neurochem 31:[…] (1978) incorporated by reference herein.) Synaptosomes were suspended in a physiological buffer (Krebs-Ringer phosphate buffer) and preincubated at 37° C. for 5 min. The uptake assay was initiated by the addition of ^3 H-L-glutamate (0.1-100 μM). Aliquots were removed at appropriate times (0.5-10 min) and were rapidly filtered on GF/F glass fiber filters. The filters were rapidly washed with 20 volumes of ice cold buffer. Radioactivity present on the filters was determined by liquid scintillation counting. Uptake rates were corrected for both background (i.e., uptake at 0 min) and leakage (i.e., uptake at 0° C.).

[2] = system: QA receptors; test: 3H-AMPA binding to QA receptors in synaptic plasma membranes; parameters: species or system rat; conditions: for ^3 H-AMPA binding to QA receptors, % of Control: diacid 100 μM, % of control binding ± s.d., corrected for nonspecific binding
Procedure: (§2) To further characterize the pharmacological specificity of the PDC conformers and identify other potential sites at which the transport inhibitor could bind, the compounds were tested for their ability to inhibit the binding of ^3 H-L-glutamate to NMDA receptors, ^3 H-KA binding to KA receptors, and ^3 H-AMPA (α-amino-3-hydroxy-5-methylisoxazole-4-propionic acid) binding to QA receptors. Binding to kainate receptors was quantified by the procedures of (a) Simon, J. R.; Contrera, J. F.; Kuhar, M. J., J. Neurochem 26, 141 (1976), and (b) London, E. D.; Coyle, J. T.; Molec. Pharm. 15, 492 (1979) which are incorporated by reference herein. Binding to quisqualate receptors (QA) were quantified as described by (c) Honore, T.; Lauridsen, J.; Krogsgaard-Larsen, P. J., Neurochem 1982, 38, 173, which are incorporated by reference herein. […] This lack of interaction with any of the excitatory receptors is in direct contrast with its potent inhibition of transport and identifies L-trans-2,4-PDC as a specific probe of the L-glutamate transport system.
(§3) Synaptic plasma membrane (SPMS) were prepared as previously described (Monaghan, D. T.; Cotman, C. W., Proc. Nat. Acad. Sci. U.S.A. 83:7532 (1986) incorporated by reference herein.) Briefly, male Sprague-Dawley rats (200 g) were decapitated, their forebrains were rapidly removed, and the brain tissue homogenized in 0.32M sucrose. Following differential centrifugation, a membrane fraction enriched in synapses, but low in myelin and mitochondria, was obtained. This membrane fraction was washed three times with […] Tris-acetate buffer, pH 7.2, and diluted into the appropriate assay buffer to about 200 μg protein/ml.
(§4) Binding to NMDA, KA, and QA receptors were quantified with ^3 H-L-glutamate, ^3 H-KA, and ^3 H-AMPA respectively. The binding assays were carried out using optimally selective conditions of time, temperature, and buffer for each of the three receptor classes. ^3 H-L-Glutamate binding was quantified under conditions that selectively label NMDA receptors. The SPMs were incubated with ^3 H-L-glutamate (10 nM, 50.9 Ci/mmol) in 50 mM Tris-acetate, pH 7.0, at 4° C. for 30 minutes. Non-specific binding was determined by the inclusion of 500 μM L-glutamate. KA receptors were quantified as previously described. ^3 H-KA (10 nM, 60 Ci/mmol) binding was determined in 50 mM Tris-citrate buffer, pH 7.0, at 4° C. for 30 min. Non-specific binding was determined by the inclusion of 100 μM unlabeled KA. QA receptors were measured with ^3 H-AMPA binding as described by Honore et al. J. Neurochem. 38:173-178 (1982). Essentially, 3 H-AMPA (10 nM, 27.6 Ci/mmol) binding is quantified in 50 mM Tris-acetate buffer, pH 7.2, containing 100 mM KSCN for 30 minutes at 4° C. Non-specific binding was determined by the inclusion of 100 μM quisqualic acid. In the inhibition studies, the conformationally defined analogues were included in the assay mixture at the appropriate concentrations (0.1-200 μM). The assays (total volume, 1.08 mL) were initiated by the addition of radiolabel and terminated by centrifugation (Beckman Microfuge, top speed, 3 min). Unbound radioligand in the supernatant was removed by suction and the radioactivity in the pellet quantified by liquid scintillation counting. All of the binding studies were carried out as 2 sets of triplicates within a single experiment and each experiment was repeated at least 3 times.

[3] = system: KA receptors; test: 3H-KA binding to KA receptors in synaptic plasma membranes; parameters: species or system rat; conditions: for ^3 H-KA binding to KA receptors, % of Control: diacid 100 μM, % of control binding ± s.d., corrected for nonspecific binding
Procedure: as §2, §3, §4

[4] = system: NMDA receptors; test: 3H-L-glutamate binding to NMDA receptors in synaptic plasma membranes; parameters: species or system rat; conditions: for ^3 H-L-GLU binding to NMDA receptors, % of Control: % of control binding ± s.d., corrected for nonspecific binding; for inhibition of ^3 H-L-glutamate binding to the NMDA receptor (in words): as reported in Table 1
Procedure: as §1, §2, §3
Binding to NMDA, KA, and QA receptors were quantified with ^3 H-L-glutamate, ^3 H-KA, and ^3 H-AMPA respectively. The binding assays were carried out using optimally selective conditions of time, temperature, and buffer for each of the three receptor classes. ^3 H-L-Glutamate binding was quantified under conditions that selectively label NMDA receptors. The SPMs were incubated with ^3 H-L-glutamate (10 nM, 50.9 Ci/mmol) in 50 mM Tris-acetate, pH 7.0, at 4° C. for 30 minutes. Non-specific binding was determined by the inclusion of 500 μM L-glutamate. KA receptors were quantified as previously described. ^3 H-KA (10 nM, 60 Ci/mmol) binding was determined in 50 mM Tris-citrate buffer, pH 7.0, at 4° C. for 30 min. Non-specific binding was determined by the inclusion of 100 μM unlabeled KA. QA receptors were measured with ^3 H-AMPA binding as described by Honore et al. J. Neurochem. 38:173-178 (1982). […]

T1 sequence (P31596 whole entry): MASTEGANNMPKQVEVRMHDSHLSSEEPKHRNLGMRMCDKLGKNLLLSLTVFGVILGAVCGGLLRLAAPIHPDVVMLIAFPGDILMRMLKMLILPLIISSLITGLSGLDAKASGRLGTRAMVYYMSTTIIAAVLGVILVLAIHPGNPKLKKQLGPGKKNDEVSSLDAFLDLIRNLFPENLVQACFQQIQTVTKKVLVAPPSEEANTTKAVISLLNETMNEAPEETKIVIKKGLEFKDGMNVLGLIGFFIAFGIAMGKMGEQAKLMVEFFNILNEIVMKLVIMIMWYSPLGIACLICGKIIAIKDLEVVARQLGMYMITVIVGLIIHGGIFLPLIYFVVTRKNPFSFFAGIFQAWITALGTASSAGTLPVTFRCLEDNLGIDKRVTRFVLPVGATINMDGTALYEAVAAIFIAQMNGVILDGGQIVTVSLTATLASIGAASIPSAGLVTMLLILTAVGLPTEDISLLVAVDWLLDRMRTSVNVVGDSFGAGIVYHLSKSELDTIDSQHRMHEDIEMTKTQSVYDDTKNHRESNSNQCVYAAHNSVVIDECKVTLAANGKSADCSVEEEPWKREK

SMILES | inhibition of glutamate transport (in words) [1] | ^3 H-AMPA binding to QA receptors, % of Control [2] | ^3 H-KA binding to KA receptors, % of Control [3] | ^3 H-L-GLU binding to NMDA receptors, % of Control ([4]; diacid 100 μM) | rate of synaptosomal transport ([1]; 20 μM compound, 37° C., control level 1.13) | inhibition at 20 µM ([1]; 20 μM compound, read-out: reduction in the rate of uptake) | inhibition of radioligand binding to QA receptors (in words) ([2]; compound in 10^4 -fold excess) | inhibition of radioligand binding to KA receptors (in words) ([3]; compound in 10^4 -fold excess) | inhibition of ^3 H-L-glutamate binding to the NMDA receptor (in words) [4] | ^3 H-L-GLU binding to NMDA receptors, % of Control ([4]; diacid 20 μM)
O=C(O)[C@@H]1CN[C@H](C(=O)O)C1 [Diacid 4, cis-4-Carboxy-L-proline] | substantially less effective | 102 ± 12 % of Control | 100 ± 12 % of Control | 89 ± 13 % of Control | – | – | – | – | – | –
O=C(O)[C@H]1CN[C@H](C(=O)O)C1 [Diacid 7, trans-4-Carboxy-L-proline] | potent inhibitor | 109 ± 13 % of Control | 102 ± 10 % of Control | 87 ± 10 % of Control | 0.16 nmol min^-1 mg-protein^-1 | > 80% | did not significantly inhibit | did not significantly inhibit | did not significantly inhibit | –
O=C(O)[C@@H]1CN[C@@H](C(=O)O)C1 [Diacid 11, trans-4-Carboxy-D-proline] | substantially less effective | 108 ± 11 % of Control | 92 ± 6 % of Control | 95 ± 12 % of Control | – | – | – | – | weakly inhibiting | –
O=C(O)[C@H]1CN[C@@H](C(=O)O)C1 [Diacid 14, cis-4-Carboxy-D-proline] | substantially less effective | 110 ± 9 % of Control | 101 ± 6 % of Control | 38 ± 12 % of Control | – | – | – | – | – | 76 ± 5 % of Control
